In ChEMBL document CHEMBL4414548 (J Med Chem, 2019):
pIC50: −log10 of the molar value.

Experiments:
[1] = biological target: T1, Non-receptor tyrosine-protein kinase TYK2 (Homo sapiens, UniProt P29597); experiment: Inhibition of fluorescein-labeled kinase tracer binding to His-TVMV-fused TYK2 JH2 domain (575 to 869 residues) (unknown origin) measured after 90 mins by HTRF assay
[2] = Cmax in Balb/c mouse assessed as 6-((5-Fluoropyridin-2-yl)amino)-4-((2-(methylsulfonyl)phenyl)amino)nicotinamide level at 10 mg/kg, po after 1 hr; assay type: ADME, organism-based; design: dose 10 mg/kg, route oral; settings: in vivo
[3] = Drug concentration in Balb/c mouse at 10 mg/kg, po after 0.5 hrs; assay type: ADME, organism-based; settings: in vivo, read-out: Drug uptake
[4] = Cmax in Balb/c mouse assessed as 6-((5-Fluoropyridin-2-yl)amino)-4-((2-(methylsulfonyl)phenyl)amino)nicotinamide level at 3 mg/kg, iv after 0.05 hrs; assay type: ADME, organism-based; design: dose 3 mg/kg, route intravenous; settings: in vivo
JAK1/TYK2 = JAK1/TYK2 (Homo sapiens, UniProt P23458+P29597); experiment: Inhibition of TYK2/JAK1 in IFNalpha-stimulated human Kit225 cells by steady-glo luciferase assay
[5] = Drug concentration in Balb/c mouse at 10 mg/kg, po after 7 hrs; assay type: ADME, organism-based; settings: in vivo, read-out: Drug uptake
[6] = Cmax in Balb/c mouse assessed as 6-((5-Fluoropyridin-2-yl)amino)-4-((2-(methylsulfonyl)phenyl)amino)nicotinamide level at 3 mg/kg, iv after 7 hrs; assay type: ADME, organism-based; design: dose 3 mg/kg, route intravenous; settings: in vivo
[7] = Cmax in Balb/c mouse assessed as 6-((5-Fluoropyridin-2-yl)amino)-4-((2-(methylsulfonyl)phenyl)amino)nicotinamide level at 3 mg/kg, iv after 0.5 hrs; assay type: ADME, organism-based; design: dose 3 mg/kg, route intravenous; settings: in vivo
[8] = Drug concentration in Balb/c mouse at 3 mg/kg, iv after 5 hrs; assay type: ADME, organism-based; settings: in vivo, read-out: Drug uptake
[9] = Half life in Balb/c mouse at 3 mg/kg, iv; assay type: ADME, organism-based; settings: in vivo
[10] = Permeability across apical to basolateral side in human Caco2 cells; assay type: ADME, cell-based; settings: Caco-2, read-out: permeability
[11] = Drug concentration in Balb/c mouse at 3 mg/kg, iv after 0.5 hrs; assay type: ADME, organism-based; settings: in vivo, read-out: Drug uptake
[12] = Volume of distribution at steady state in Balb/c mouse at 3 mg/kg, iv; assay type: ADME, organism-based; settings: in vivo, read-out: Vdss
[13] = Metabolic stability in mouse liver microsomes assessed as parent compound remaining after 10 mins; assay type: ADME, Microsome; settings: read-out: Stability
[14] = Clearance in Balb/c mouse at 3 mg/kg, iv; assay type: ADME, organism-based; settings: in vivo
[15] = biological target: Tyrosine-protein kinase JAK2 (Homo sapiens, UniProt O60674); experiment: Inhibition of JAK2 JH1 domain (unknown origin)
[16] = Drug concentration in Balb/c mouse at 3 mg/kg, iv after 7 hrs; assay type: ADME, organism-based; settings: in vivo, read-out: Drug uptake
[17] = biological target: T1, Non-receptor tyrosine-protein kinase TYK2; experiment: Inhibition of TYK2 JH2 domain in human whole blood assessed as inhibition of IFNalpha-induced STAT5 phosphorylation preincubated for 1 hr followed by IFNalpha stimulation and measured after 15 mins by fluorescence assay; assay type: tissue-based
[18] = AUClast in Balb/c mouse assessed as 6-((5-Fluoropyridin-2-yl)amino)-4-((2-(methylsulfonyl)phenyl)amino)nicotinamide level at 10 mg/kg, po; assay type: ADME, organism-based; design: dose 10 mg/kg, time 0 - last, route oral; settings: in vivo
[19] = AUClast in Balb/c mouse assessed as 6-((5-Fluoropyridin-2-yl)amino)-4-((2-(methylsulfonyl)phenyl)amino)nicotinamide level at 3 mg/kg, iv; assay type: ADME, organism-based; design: dose 3 mg/kg, route intravenous, time 0 - last; settings: in vivo
[20] = AUClast in mouse at 10 mg/kg, po; assay type: ADME, organism-based; design: dose 10 mg/kg, route oral, time 0 - last; settings: in vivo
[21] = biological target: Mast/stem cell growth factor receptor Kit (Homo sapiens, UniProt P10721); experiment: Inhibition of cKIT (unknown origin)
[22] = Partition coefficient, log P of compound by HPLC analysis; assay type: physicochemical; settings: octanol/water
[23] = AUClast in Balb/c mouse at 10 mg/kg, po; assay type: ADME, organism-based; design: dose 10 mg/kg, time 0 - last, route oral; settings: in vivo
[24] = biological target: Non-receptor tyrosine-protein kinase TYK2 (Mus musculus, UniProt Q9R117); experiment: Inhibition of TYK2 JH2 domain in mouse whole blood assessed as inhibition of IFNalpha-induced STAT1 phosphorylation preincubated for 1 hr followed by IFNalpha stimulation and measured after 15 mins by fluorescence assay; assay type: tissue-based
Chain of Non-receptor tyrosine-protein kinase TYK2 (Mus musculus, UniProt Q9R117) (Q9R117 whole entry, the tested form may be a part): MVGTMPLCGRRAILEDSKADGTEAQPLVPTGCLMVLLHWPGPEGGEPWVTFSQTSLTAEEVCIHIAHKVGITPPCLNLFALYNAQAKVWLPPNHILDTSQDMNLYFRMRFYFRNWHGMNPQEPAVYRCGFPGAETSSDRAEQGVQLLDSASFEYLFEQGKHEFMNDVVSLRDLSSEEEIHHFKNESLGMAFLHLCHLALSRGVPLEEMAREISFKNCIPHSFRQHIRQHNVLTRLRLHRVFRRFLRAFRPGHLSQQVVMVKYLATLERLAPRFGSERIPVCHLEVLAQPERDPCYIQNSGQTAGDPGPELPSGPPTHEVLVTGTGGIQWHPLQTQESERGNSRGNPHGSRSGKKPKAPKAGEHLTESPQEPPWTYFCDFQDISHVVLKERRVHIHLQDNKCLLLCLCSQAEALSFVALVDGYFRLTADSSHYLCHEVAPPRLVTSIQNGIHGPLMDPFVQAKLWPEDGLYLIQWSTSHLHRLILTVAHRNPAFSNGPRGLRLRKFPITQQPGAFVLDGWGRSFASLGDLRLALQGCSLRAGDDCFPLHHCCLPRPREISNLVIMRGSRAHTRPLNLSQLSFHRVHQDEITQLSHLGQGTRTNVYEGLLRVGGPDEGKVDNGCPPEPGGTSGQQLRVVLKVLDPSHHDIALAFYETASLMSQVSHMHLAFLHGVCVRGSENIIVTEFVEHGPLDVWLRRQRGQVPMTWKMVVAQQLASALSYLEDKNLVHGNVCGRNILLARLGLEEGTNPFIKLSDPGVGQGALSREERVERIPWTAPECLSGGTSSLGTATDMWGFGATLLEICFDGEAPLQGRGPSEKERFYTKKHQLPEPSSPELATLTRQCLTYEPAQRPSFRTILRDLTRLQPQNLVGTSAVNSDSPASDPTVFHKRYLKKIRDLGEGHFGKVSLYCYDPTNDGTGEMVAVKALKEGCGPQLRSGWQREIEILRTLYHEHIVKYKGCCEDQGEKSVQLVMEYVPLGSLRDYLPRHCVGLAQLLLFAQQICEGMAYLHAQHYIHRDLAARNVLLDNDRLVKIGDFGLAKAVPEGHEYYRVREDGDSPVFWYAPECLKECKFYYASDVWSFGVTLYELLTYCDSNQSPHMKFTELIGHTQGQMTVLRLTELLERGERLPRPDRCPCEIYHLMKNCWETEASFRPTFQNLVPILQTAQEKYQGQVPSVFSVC

[25] = Drug concentration in Balb/c mouse at 10 mg/kg, po after 5 hrs; assay type: ADME, organism-based; settings: in vivo, read-out: Drug uptake
[26] = biological target: T1, Non-receptor tyrosine-protein kinase TYK2; experiment: Inhibition of TYK2 JH1 domain (unknown origin)
[27] = Cmax in Balb/c mouse assessed as 6-((5-Fluoropyridin-2-yl)amino)-4-((2-(methylsulfonyl)phenyl)amino)nicotinamide level at 10 mg/kg, po after 0.5 hrs; assay type: ADME, organism-based; design: dose 10 mg/kg, route oral; settings: in vivo
[28] = Drug concentration in Balb/c mouse at 10 mg/kg, po after 1 hr; assay type: ADME, organism-based; settings: in vivo, read-out: Drug uptake
[29] = biological target: 3',5'-cyclic-AMP phosphodiesterase 4D (Homo sapiens, UniProt Q08499); experiment: Inhibition of [3H]cAMP binding to recombinant human His-Tb fused PDE4D2 (86 to 413 residues) expressed in Escherichia coli using [3H]cAMP as substrate preincubated for 10 mins followed by [3H]cAMP addition and measured after 1 hr by scintillation proximity assay
Chain of 3',5'-cyclic-AMP phosphodiesterase 4D (Q08499 whole entry, the tested form may be a part): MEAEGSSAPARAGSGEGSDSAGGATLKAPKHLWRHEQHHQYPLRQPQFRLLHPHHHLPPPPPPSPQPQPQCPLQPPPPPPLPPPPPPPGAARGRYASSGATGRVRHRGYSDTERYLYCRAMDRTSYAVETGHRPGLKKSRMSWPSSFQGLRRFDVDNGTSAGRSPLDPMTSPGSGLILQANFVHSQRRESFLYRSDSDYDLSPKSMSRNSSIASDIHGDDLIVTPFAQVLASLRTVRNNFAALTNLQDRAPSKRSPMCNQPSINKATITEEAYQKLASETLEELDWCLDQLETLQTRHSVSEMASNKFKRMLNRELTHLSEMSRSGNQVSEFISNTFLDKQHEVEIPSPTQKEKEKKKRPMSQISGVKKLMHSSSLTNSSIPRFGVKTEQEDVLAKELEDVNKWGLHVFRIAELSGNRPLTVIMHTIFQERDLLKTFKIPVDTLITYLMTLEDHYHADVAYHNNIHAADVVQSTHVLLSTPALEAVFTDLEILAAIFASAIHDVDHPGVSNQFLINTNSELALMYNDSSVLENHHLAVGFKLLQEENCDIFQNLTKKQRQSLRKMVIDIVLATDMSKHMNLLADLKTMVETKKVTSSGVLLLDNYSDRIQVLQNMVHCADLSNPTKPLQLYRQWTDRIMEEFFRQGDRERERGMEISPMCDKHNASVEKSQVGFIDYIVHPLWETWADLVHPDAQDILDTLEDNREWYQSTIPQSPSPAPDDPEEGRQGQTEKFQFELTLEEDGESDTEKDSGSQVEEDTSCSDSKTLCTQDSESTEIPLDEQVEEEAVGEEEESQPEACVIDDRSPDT

[30] = Oral bioavailability in Balb/c mouse at 10 mg/kg; assay type: ADME, organism-based; settings: in vivo
[31] = Cmax in Balb/c mouse assessed as 6-((5-Fluoropyridin-2-yl)amino)-4-((2-(methylsulfonyl)phenyl)amino)nicotinamide level at 10 mg/kg, po after 3 hrs; assay type: ADME, organism-based; design: dose 10 mg/kg, route oral; settings: in vivo
[32] = Cmax in mouse at 10 mg/kg, po; assay type: ADME, organism-based; design: dose 10 mg/kg, route oral; settings: in vivo
[33] = Cmax in Balb/c mouse assessed as 6-((5-Fluoropyridin-2-yl)amino)-4-((2-(methylsulfonyl)phenyl)amino)nicotinamide level at 3 mg/kg, iv after 1 hr; assay type: ADME, organism-based; design: dose 3 mg/kg, route intravenous; settings: in vivo
[34] = Metabolic stability in human liver microsomes assessed as parent compound remaining after 10 mins; assay type: ADME, Microsome; settings: read-out: Stability
[35] = Cmax in Balb/c mouse assessed as 6-((5-Fluoropyridin-2-yl)amino)-4-((2-(methylsulfonyl)phenyl)amino)nicotinamide level at 3 mg/kg, iv after 5 hrs; assay type: ADME, organism-based; design: dose 3 mg/kg, route intravenous; settings: in vivo
[36] = biological target: T2, Voltage-gated inwardly rectifying potassium channel KCNH2 (Homo sapiens, UniProt Q12809); experiment: Inhibition of human ERG by fluorescence polarization assay
T2 sequence (Q12809 whole entry): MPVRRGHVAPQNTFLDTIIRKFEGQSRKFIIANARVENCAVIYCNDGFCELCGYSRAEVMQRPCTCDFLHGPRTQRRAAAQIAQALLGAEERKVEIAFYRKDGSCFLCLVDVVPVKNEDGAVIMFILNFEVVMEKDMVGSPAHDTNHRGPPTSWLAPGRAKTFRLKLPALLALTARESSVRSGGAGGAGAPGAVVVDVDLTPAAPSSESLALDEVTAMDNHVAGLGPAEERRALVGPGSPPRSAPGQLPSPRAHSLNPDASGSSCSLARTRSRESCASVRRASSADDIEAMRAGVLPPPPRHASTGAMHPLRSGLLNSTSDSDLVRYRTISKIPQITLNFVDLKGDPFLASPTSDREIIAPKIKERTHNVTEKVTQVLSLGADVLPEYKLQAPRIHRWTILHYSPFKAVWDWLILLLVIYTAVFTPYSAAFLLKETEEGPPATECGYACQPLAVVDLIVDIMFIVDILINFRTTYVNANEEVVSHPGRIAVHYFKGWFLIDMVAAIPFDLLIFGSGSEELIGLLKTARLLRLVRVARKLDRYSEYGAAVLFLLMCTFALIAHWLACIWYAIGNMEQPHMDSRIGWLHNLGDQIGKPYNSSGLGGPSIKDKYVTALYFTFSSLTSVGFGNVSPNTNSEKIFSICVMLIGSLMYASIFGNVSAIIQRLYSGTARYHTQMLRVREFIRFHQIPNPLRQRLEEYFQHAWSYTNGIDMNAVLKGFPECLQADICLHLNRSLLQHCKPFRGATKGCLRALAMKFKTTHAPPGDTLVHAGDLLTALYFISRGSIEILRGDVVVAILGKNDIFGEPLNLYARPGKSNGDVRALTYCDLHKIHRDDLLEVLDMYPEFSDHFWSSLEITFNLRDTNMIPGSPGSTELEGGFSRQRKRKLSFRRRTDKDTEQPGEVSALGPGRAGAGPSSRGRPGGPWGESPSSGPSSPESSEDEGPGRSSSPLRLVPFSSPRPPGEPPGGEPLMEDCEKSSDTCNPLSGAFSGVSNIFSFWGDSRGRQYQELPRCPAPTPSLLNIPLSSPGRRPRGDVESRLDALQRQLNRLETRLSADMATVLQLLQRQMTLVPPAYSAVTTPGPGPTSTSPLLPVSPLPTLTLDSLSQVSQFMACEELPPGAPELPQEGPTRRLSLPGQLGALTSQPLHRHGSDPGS

[37] = Metabolic stability in rat liver microsomes assessed as parent compound remaining after 10 mins; assay type: ADME, Microsome; settings: read-out: Stability
[38] = Cmax in Balb/c mouse assessed as 6-((5-Fluoropyridin-2-yl)amino)-4-((2-(methylsulfonyl)phenyl)amino)nicotinamide level at 3 mg/kg, iv after 3 hrs; assay type: ADME, organism-based; design: dose 3 mg/kg, route intravenous; settings: in vivo
JAK3/JAK1 = JAK3/JAK1 (Homo sapiens, UniProt P23458+P52333); experiment: Inhibition of JAK1/JAK3 (unknown origin) in IL-2 stimulated cells by cell based assay
[39] = AUClast in Balb/c mouse at 3 mg/kg, iv; assay type: ADME, organism-based; design: dose 3 mg/kg, route intravenous, time 0 - last; settings: in vivo
[40] = Drug concentration in Balb/c mouse at 10 mg/kg, po after 3 hrs; assay type: ADME, organism-based; settings: in vivo, read-out: Drug uptake
[41] = Cmax in Balb/c mouse assessed as 6-((5-Fluoropyridin-2-yl)amino)-4-((2-(methylsulfonyl)phenyl)amino)nicotinamide level at 10 mg/kg, po after 0.05 hrs; assay type: ADME, organism-based; design: dose 10 mg/kg, route oral; settings: in vivo
[42] = Cmax in Balb/c mouse assessed as 6-((5-Fluoropyridin-2-yl)amino)-4-((2-(methylsulfonyl)phenyl)amino)nicotinamide level at 10 mg/kg, po after 7 hrs; assay type: ADME, organism-based; design: dose 10 mg/kg, route oral; settings: in vivo
[43] = Drug concentration in Balb/c mouse at 10 mg/kg, po after 0.05 hrs; assay type: ADME, organism-based; settings: in vivo, read-out: Drug uptake
[44] = Cmax in Balb/c mouse assessed as 6-((5-Fluoropyridin-2-yl)amino)-4-((2-(methylsulfonyl)phenyl)amino)nicotinamide level at 10 mg/kg, po after 5 hrs; assay type: ADME, organism-based; design: dose 10 mg/kg, route oral; settings: in vivo
JAK2/TYK2 = JAK2/TYK2 (Homo sapiens, UniProt O60674+P29597); experiment: Inhibition of TYK2/JAK2 in IL23-stimulated human Kit225 cells by steady-glo luciferase assay
[45] = biological target: Tyrosine-protein kinase JAK1 (Homo sapiens, UniProt P23458); experiment: Inhibition of JAK1 JH1 domain (unknown origin)
[46] = Efflux ratio of permeability in human Caco2; assay type: ADME, cell-based; settings: Caco-2
[47] = Drug concentration in Balb/c mouse at 3 mg/kg, iv after 0.05 hrs; assay type: ADME, organism-based; settings: in vivo, read-out: Drug uptake
[48] = biological target: T2, Voltage-gated inwardly rectifying potassium channel KCNH2; experiment: Inhibition of human ERG by patch clamp assay
[49] = Drug concentration in Balb/c mouse at 3 mg/kg, iv after 3 hrs; assay type: ADME, organism-based; settings: in vivo, read-out: Drug uptake
[50] = Drug concentration in Balb/c mouse at 3 mg/kg, iv after 1 hr; assay type: ADME, organism-based; settings: in vivo, read-out: Drug uptake
JAK2/JAK1 = JAK2/JAK1 (Homo sapiens, UniProt O60674+P23458); experiment: Inhibition of JAK1/JAK2 (unknown origin) in GM-CSF stimulated cells by cell based assay

T1 sequence (P29597 whole entry, the tested form may be a part): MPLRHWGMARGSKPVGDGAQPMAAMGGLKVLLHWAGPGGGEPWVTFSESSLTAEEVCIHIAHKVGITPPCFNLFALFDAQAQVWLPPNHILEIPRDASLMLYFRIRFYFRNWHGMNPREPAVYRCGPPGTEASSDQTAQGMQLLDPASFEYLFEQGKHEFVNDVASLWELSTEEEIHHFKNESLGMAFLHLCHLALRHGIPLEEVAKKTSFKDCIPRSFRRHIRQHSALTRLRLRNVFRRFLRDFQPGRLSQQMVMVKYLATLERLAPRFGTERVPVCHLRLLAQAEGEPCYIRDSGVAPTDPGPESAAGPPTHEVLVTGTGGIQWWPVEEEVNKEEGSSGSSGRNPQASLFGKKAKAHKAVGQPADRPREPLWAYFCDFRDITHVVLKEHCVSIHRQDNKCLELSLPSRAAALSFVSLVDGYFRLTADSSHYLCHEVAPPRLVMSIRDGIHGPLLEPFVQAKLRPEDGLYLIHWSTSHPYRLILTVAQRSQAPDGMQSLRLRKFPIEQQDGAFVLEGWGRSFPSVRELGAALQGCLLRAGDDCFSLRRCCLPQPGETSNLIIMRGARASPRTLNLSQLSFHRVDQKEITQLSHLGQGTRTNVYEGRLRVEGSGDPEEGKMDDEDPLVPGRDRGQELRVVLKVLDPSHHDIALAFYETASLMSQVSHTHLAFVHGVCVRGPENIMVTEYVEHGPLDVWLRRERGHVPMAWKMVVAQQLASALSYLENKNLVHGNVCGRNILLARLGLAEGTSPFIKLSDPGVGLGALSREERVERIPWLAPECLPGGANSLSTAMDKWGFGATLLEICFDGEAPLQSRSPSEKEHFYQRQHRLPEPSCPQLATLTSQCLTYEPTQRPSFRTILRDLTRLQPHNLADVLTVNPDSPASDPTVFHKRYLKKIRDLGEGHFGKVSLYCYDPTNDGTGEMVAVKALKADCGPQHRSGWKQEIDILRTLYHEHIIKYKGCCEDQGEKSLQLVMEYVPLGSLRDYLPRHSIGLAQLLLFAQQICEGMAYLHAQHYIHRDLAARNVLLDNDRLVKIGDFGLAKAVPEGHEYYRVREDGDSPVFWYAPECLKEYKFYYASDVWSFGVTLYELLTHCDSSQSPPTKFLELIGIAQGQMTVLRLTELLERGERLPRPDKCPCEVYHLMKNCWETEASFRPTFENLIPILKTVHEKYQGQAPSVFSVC

SMILES: CNC(=O)c1cnc(Nc2ccc(F)cn2)cc1Nc1ccccc1S(C)(=O)=O
- pIC50 [1]: 9.04
- Cmax [2]: 21 nM
- concentration at 0.5 h [3]: 1400 nM
- Cmax [4]: 51 nM
- pIC50 (JAK1/TYK2): 7.20
- concentration at 7 h [5]: 450 nM
- Cmax [6]: 54 nM
- Cmax [7]: 110 nM
- concentration at 5 h [8]: 440 nM
- half-life [9]: 3 h
- Papp A→B [10]: 4.8 ×10⁻⁶ cm/s
- concentration at 0.5 h [11]: 2100 nM
- Vd [12]: 2.8 L/kg
- remaining at 10 min [13]: 87%
- clearance [14]: 15 mL/min/kg
- pIC50 [15]: < 4.30
- concentration at 7 h [16]: 190 nM
- pIC50 [17]: 6.74
- AUClast [18]: 0.2 µM·h
- AUClast [19]: 0.36 µM·h
- AUC(0-t) [20]: 9.83 µM·h
- pIC50 [21]: 7.00
- logP [22]: 2.61
- AUC(0-t) [23]: 8.1 µM·h
- pIC50 [24]: 6.35
- concentration at 5 h [25]: 1400 nM
- pIC50 [26]: < 4.30
- Cmax [27]: 14 nM
- concentration at 1 h [28]: 1600 nM
- pIC50 [29]: 5.38
- bioavailability [30]: 35%
- Cmax [31]: 28 nM
- Cmax [32]: 1620 nM
- Cmax [33]: 84 nM
- remaining at 10 min [34]: 90%
- Cmax [35]: 41 nM
- pIC50 [36]: 4.60
- remaining at 10 min [37]: 85%
- Cmax [38]: 33 nM
- pIC50 (JAK3/JAK1): < 4.90
- AUC(0-t) [39]: 7 µM·h
- concentration at 3 h [40]: 1500 nM
- Cmax [41]: 9.8 nM
- Cmax [42]: 24 nM
- concentration at 0.05 h [43]: 780 nM
- Cmax [44]: 47 nM
- pIC50 (JAK2/TYK2): 7.20
- pIC50 [45]: < 4.30
- efflux ratio [46]: 10
- concentration at 0.05 h [47]: 3500 nM
- pIC50 [48]: 5.60
- concentration at 3 h [49]: 530 nM
- concentration at 1 h [50]: 2100 nM
- pIC50 (JAK2/JAK1): < 4.90
